Measured values from patent US20190070229A1, “Composition comprising a lactic acid bacteria for preventing and treating vaginosis and the use thereof” (HAUDONGCHUN CO., LTD, priority 2016, published 2019).

Legend:
Details in all cases: MRS medium, 37° C.; A50, K50, S50 50, C34 34, T15 15, G20 20, R25 25 microgram/ml
[1] = test system: BLB (Lactobacillus brevis); assay: Antibiotic susceptibility of lactic acid bacteria strains; type: cell-based; also: key: +++: being normally grown without the effect of antibiotic; −: being not grown caused by the effect of antibiotic
Method: (§1) In order to determine the antibiotic resistance of the lactic acid bacteria strains reproducing abundant lactic acids, i.e., Lactobacillus acidophilus (KCTC No. 3164), Bifidobacterium longum sub sp. longum (KCTC No. 3128) etc, the bacteria was inoculated into MRS medium (10 g of Protease peptone, 10 g of beef extract, 5 g of yeast extract, 20 g of D-glucose, 1 ml of Tween 80, 2 g of K2HPO4, 5 g of sodium acetate, 2 g of diammonium hydrogencitrate, 0.2 g of MgSO47H20, 0.2 g of MnSO4H20, 1 L of distilled water, pH 6.2-6.5) and performed to shaking incubation at 37° C. at the speed of 150 rpm.

[2] = test system: BBC (Bacillus cereus); assay: as above; type: cell-based
Method: as §1

[3] = test system: BBA (Bifidobacterium adolescentis); assay: as above; type: cell-based; also: key: +++: being normally grown without the effect of antibiotic; −: being not grown caused by the effect of antibiotic
Method: as §1

[4] = test system: BLC (Lactobacillus casei); assay: as above; type: cell-based; also: key: +++: being normally grown without the effect of antibiotic; −: being not grown caused by the effect of antibiotic
Method: as §1

[5] = test system: BBL (Bifidobacterium longum subsp. Longum); assay: as above; type: cell-based
Method: as §1

[6] = test system: BSS (Streptococcus sp); assay: as above; type: cell-based
Method: as §1

[7] = test system: BLD (Lactobacillus delbrueckii subsp. bulgaricus); assay: as above; type: cell-based
Method: as §1

[8] = test system: BBC2 (Bifidobacterium catenulatum); assay: as above; type: cell-based
Method: as §1

[9] = test system: BLA (Lactobacillus acidophilus); assay: as above; type: cell-based
Method: as §1

[10] = test system: BBB1 (Bifidobacterium bifidum); parameters: key to the marks not given beside the values
[11] = test system: BBB2 (Bifidobacterium breve); parameters: key to the marks not given beside the values
For Antibiotic susceptibility (growth of BBC with antibiotic) in this document: key: +++: being normally grown without the effect of antibiotic; −: being not grown caused by the effect of antibiotic.

Compound | Antibiotic susceptibility (growth of BLB with antibiotic) [1] | Antibiotic susceptibility (growth of BBC with antibiotic) [2] | Antibiotic susceptibility (growth of BBA with antibiotic) [3] | Antibiotic susceptibility (growth of BLC with antibiotic) [4] | Antibiotic susceptibility (growth of BBL with antibiotic) [5] | Antibiotic susceptibility (growth of BSS with antibiotic) [6] | Antibiotic susceptibility (growth of BLD with antibiotic) [7] | Antibiotic susceptibility (growth of BBC2 with antibiotic) [8] | Antibiotic susceptibility (growth of BLA with antibiotic) [9] | Antibiotic susceptibility (growth of BBB1 with antibiotic) [10] | Antibiotic susceptibility (growth of BBB2 with antibiotic) [11]
CC1(C)S[C@@H]2[C@H](NC(=O)[C@H](N)c3ccccc3)C(=O)N2[C@H]1C(=O)O [Ampicillin, ampicillin] | − | − | − | − | − | − | − | − |  |  | 
O=C(N[C@H](CO)[C@H](O)c1ccc([N+](=O)[O-])cc1)C(Cl)Cl [Chloramphenicol, chloramphenicol] | − | − | − | − | − | − | − | − | − |  | 
NC[C@H]1O[C@H](O[C@H]2[C@H](O)[C@@H](O[C@H]3O[C@H](CO)[C@@H](O)[C@H](N)[C@H]3O)[C@H](N)C[C@@H]2N)[C@H](O)[C@@H](O)[C@@H]1O [Kanamycin, kanamycin] | +++ |  |  | +++ | +++ | +++ | +++ |  | +++ | +++ | +++
CO[C@H]1/C=C/O[C@@]2(C)Oc3c(C)c(O)c4c(O)c(c(/C=N/N5CCN(C)CC5)c(O)c4c3C2=O)NC(=O)/C(C)=C\C=C\[C@H](C)[C@H](O)[C@@H](C)[C@@H](O)[C@@H](C)[C@H](OC(C)=O)[C@@H]1C [Ripampicin, rifampicin] | − | − | − | − | − | − | − | − | − |  | 
[H]/N=C(/N)N[C@H]1[C@H](O)[C@@H](O)[C@H](O[C@@H]2O[C@@H](C)[C@](O)(C=O)[C@H]2O[C@@H]2O[C@@H](CO)[C@H](O)[C@@H](O)[C@@H]2NC)[C@@H](N/C(N)=N\[H])[C@@H]1O [Streptomycin] | − |  |  | − | +++ |  | − |  | − |  | +++
CN(C)[C@@H]1C(=O)C(C(N)=O)=C(O)[C@@]2(O)C(=O)C3=C(O)c4c(O)cccc4[C@@](C)(O)[C@H]3C[C@@H]12 [Tetracyclin, tetracycline] | − | − | − | − | − | − | − | − | − |  | 
gentamycin | − | +++ | +++ | − | +++ |  | − | +++ | − |  | 
